The text below walks through data of publication doi:10.1101/2021.08.02.454818v1 (biorxiv, 2021).

As a reminder, the Kd is the constant that tells how readily two partners part at equilibrium. Higher therefore signals lower affinity.

This assay deals with T1, CdRelQ (Clostridioides difficile, UniProt A0A9R0BI07).
T1 sequence (A0A9R0BI07 1-270): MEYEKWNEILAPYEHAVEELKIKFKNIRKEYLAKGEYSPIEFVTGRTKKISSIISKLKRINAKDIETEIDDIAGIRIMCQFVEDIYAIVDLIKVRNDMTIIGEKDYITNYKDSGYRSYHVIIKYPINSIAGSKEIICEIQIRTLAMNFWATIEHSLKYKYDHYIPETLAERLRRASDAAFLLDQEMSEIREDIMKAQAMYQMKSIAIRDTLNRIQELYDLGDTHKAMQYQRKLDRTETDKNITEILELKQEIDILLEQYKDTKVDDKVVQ
The assay can be described thus: isothermal titration calorimetry, single-binding-site model.

In the case of `Nc1nc2c(ncn2[C@@H]2O[C@H](COP(=O)(O)OP(=O)(O)O)[C@@H](O)[C@H]2O)c(=O)[nH]1` [GDP], binding was characterised by a dissociation constant (Kd) of 490 µM.
Next, `Nc1nc2c(ncn2[C@@H]2O[C@H](COP(=O)(O)OP(=O)(O)OP(=O)(O)O)[C@@H](O)[C@H]2O)c(=O)[nH]1` [GTP]: 20.5 µM.
